Experiments:
[1] = biological target: T1, human serotonin (hSERT) uptake transporter (Homo sapiens, UniProt P31645); test: Monoamine uptake inhibition, serotonin uptake in transfected HEK293 cells; assay type: cell-based
T1 construct: expressed in transfected cells; host or cells: HEK293
Experimental: The monoamine uptake transporter inhibition was examined in accordance with previously described methods by for each substance of interest.
Human embryonic kidney 293 (HEK293) cells (Invitrogen, Zug, Switzerland) stably transfected with the human norepinephrine (hNET), dopamine (hDAT), or serotonin (hSERT) uptake transporters were briefly cultured in Dulbecco’s modified Eagle’s medium (DMEM; Gibco, Life Technologies, Zug, Switzerland) containing 10% fetal bovine serum and 250 μg/mL geneticin (Gibco, Life Technologies, Zug, Switzerland). Next, the cells were detached at a confluency of 70−90% and resuspended in Krebs–Ringer Bicarbonate Buffer (Sigma-Aldrich, Buchs, Switzerland) at a concentration of 3 × 10^6 cells per ml. The uptake buffer was additionally supplemented with 0.2 mg/mL of ascorbic acid (Sigma–Aldrich, Buchs, Switzerland) for the [^3H]-DA uptake experiments.
In summary, using round bottom 96-well plates, 100 μL of cell suspension was incubated in 25 μL of buffer containing test substances, vehicle control (0.7% dimethyl sulfoxide, DMSO), or 10 μM of the respective monoamine uptake inhibitor, mainly fluoxetine (SERT), nisoxetine (NET), or mazindol (DAT) for 10 min at room temperature while on a rotary shaker at 450 rpm (Thermomixer Comfort, Eppendorf, Hamburg, Germany). Thereafter, the monoamine uptake transporter was initiated by the addition of 50 μL of each respective radiolabelled neurotransmitter ([^3H]-5-HT, [^3H]-DA or [^3H]-NE) dissolved in the uptake buffer to a final concentration of 5 nM for an additional 10 min. Then, 100 μL of cell suspension mixture was transferred to microcentrifuge tubes containing 50 μL of 3 M potassium hydroxide (KOH, Sigma–Aldrich, Buchs, Switzerland) and 200 μL silicon oil (1:1 mixture of silicon oil type AR20 and AR200; Sigma–Aldrich, Buchs, Switzerland). Immediately after, the tubes were centrifugated (3 min, 13200 rpm) to terminate the uptake reaction by allowing the cells to move through the silicon oil into the KOH, which then lysed the cells. Quickly after, the tubes were immediately frozen with liquid nitrogen. Afterwards, the frozen cell pellet was cut off into 6 mL scintillation vials (Perkin–Elmer, Schwerzenbach, Switzerland) filled with 500 μL of lysis buffer (5 mM EDTA, 0.05 M TRIS-HCl, 50 mM NaCl and 1% NP-40 in water). Directly after the vials were shaken for 1 h at 700 rpm and then each vial was filled with 3 mL of scintillation fluid (Ultimagold, Perkin–Elmer, Schwerzenbach, Switzerland). The uptake of the monoamines was measured using a liquid scintillation counter (Packard Tri-Carb Liquid Scintillation Counter 1900 TR).
The data were analysed using Prism software (version 8, GraphPad, San Diego, CA, USA) and was fitted by a nonlinear regression to variable-slope sigmoidal dose-response curve. The IC50 values were extracted in order to determine each drug’s inhibition potency at the various monoamine transporters.

[2] = biological target: T2, h5-HT1A receptor (Homo sapiens, UniProt P08908); test: Radioligand binding, [3H]-8-OH-DPAT
T2 construct: expressed in transfected cells; host or cells: HEK293 cell preparations
T2 sequence (P08908 1-422): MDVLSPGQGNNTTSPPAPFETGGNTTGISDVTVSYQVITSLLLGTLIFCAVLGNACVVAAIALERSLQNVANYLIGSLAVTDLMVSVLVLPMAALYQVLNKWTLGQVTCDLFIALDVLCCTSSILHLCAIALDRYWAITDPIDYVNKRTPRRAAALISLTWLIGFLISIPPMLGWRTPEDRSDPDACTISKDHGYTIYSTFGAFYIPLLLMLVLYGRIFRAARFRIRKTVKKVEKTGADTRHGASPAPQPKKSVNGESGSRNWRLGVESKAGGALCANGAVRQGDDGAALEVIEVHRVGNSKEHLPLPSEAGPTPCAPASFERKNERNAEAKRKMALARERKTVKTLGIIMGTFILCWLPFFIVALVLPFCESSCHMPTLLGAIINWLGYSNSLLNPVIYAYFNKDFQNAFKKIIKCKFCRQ
Experimental: (§1) The radioligand binding assays for the human 5-HT1A, 5-HT2A, and 5-HT2C receptors were examined as previously described by. In summary, the human embryonic kidney 293 (HEK293) cell preparations were stably transfected with the human 5-HT1A, 5-HT2A or 5-HT2C receptors and then incubated with their respective radiolabelled ligands at a concentration equal to the dissociation constant, Kd. The following radioligands were used for the 5-HT1A, 5-HT2A, and 5-HT2C receptors, respectively; 0.90 nM [^3H]8-hydroxy-2-(dipropylamino) tetralin (8-OH-DPAT), 0.40 nM [^3H]ketanserin, and 1.4 nM [^3H]mesulgerine. The radioligand displacement for each examined drug was determined. Specific binding of the radioligand to the target was calculated by subtracting the nonspecific binding (in the presence of the receptor’s competitor in excess) from the total observed binding. The following radioligand competitors were used for the 5-HT1A, 5-HT2A, and 5-HT2C receptors, respectively; 10 μM pindolol (5-HT1A receptor), 10 μM spiperone (5-HT2A receptor), and 10 μM mianserin (5-HT2C receptor).

[3] = biological target: T3, h5-HT2B receptor (Homo sapiens, UniProt P41595); test: Activation potency, FLIPR calcium assay in HEK293 cells; assay type: cell-based
T3 construct: expressed in transfected cells; host or cells: HEK293
Experimental: Human embryonic kidney 293 (HEK293) cells were transfected with the human 5-HT2B receptors, seed into 96-well plates coated with poly-D-lysine at a concentration of 50,000 cell per 0.1 mL and then incubated for overnight at 37 °C in high glucose Dulbecco’s modified Eagle’s medium (DMEM; Invitrogen, Zug, Switzerland) containing 10% fetal calf serum (non-dialyzed, heat-inactivated), 250 mg/L Geneticin, and 10 mL/L PenStrep (Gibco). The medium was then removed using snap inversion and the cells were incubated with the 100 μL/well of calcium indicator Fluo-3-solution for 45 min at 31 °C (Molecular Probes, Eugene, OR, USA). Thereafter, the solution was removed using snap inversion and replaced with fresh calcium indicator Fluo-3-solution for an additional 45 min at 31 °C. The cells were then washed with HBSS and 20 mM HEPES using the EMBLA cell washer and immediately after incubated with 100 μL of assay buffer. The plate was then put into the FLIPR, turned online and the test drugs, diluted in the assay buffer were added to the corresponding wells (25 μL/well). The corresponding concentration vs. response curves were fitted using nonlinear regression and the EC50 values were calculated. The efficacy (maximal activity) was calculated relative to 5-HT activity, which was defined as 100%.

[4] = biological target: h5-HT2A receptor (Homo sapiens, UniProt P28223); test: Radioligand binding, [3H]-ketanserin; parameters: expressed in transfected cells; host or cells: HEK293 cell preparations
Experimental: as §1

T1 sequence (P31645 whole entry): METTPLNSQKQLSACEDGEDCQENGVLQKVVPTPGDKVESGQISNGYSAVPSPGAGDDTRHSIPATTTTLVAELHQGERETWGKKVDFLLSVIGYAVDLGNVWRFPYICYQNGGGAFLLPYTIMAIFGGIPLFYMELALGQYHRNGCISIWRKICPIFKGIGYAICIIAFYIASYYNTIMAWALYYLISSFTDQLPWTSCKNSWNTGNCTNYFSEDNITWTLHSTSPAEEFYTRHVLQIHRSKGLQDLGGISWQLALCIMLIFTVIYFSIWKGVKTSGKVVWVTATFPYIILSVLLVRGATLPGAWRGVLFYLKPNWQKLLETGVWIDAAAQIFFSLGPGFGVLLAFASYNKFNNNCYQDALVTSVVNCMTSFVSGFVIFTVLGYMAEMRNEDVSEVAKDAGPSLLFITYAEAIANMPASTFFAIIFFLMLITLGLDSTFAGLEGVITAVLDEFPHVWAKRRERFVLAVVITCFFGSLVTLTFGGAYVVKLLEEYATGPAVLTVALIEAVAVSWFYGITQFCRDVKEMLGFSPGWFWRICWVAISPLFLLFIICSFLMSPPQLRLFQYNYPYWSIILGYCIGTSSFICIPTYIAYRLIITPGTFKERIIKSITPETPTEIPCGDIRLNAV
T3 sequence (P41595 whole entry): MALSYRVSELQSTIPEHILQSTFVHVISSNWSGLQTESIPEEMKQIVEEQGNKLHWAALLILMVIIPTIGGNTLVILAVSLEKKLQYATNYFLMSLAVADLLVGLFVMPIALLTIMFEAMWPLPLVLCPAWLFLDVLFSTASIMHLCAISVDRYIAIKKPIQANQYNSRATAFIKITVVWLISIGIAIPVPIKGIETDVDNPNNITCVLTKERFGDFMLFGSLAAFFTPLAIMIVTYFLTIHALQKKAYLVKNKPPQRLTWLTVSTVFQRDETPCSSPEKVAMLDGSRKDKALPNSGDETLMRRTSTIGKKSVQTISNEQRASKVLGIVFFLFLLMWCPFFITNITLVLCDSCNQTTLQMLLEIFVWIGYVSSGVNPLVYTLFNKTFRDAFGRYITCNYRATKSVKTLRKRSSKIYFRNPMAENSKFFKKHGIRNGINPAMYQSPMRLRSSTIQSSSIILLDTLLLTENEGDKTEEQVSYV
Sequence of h5-HT2A receptor (P28223 whole entry): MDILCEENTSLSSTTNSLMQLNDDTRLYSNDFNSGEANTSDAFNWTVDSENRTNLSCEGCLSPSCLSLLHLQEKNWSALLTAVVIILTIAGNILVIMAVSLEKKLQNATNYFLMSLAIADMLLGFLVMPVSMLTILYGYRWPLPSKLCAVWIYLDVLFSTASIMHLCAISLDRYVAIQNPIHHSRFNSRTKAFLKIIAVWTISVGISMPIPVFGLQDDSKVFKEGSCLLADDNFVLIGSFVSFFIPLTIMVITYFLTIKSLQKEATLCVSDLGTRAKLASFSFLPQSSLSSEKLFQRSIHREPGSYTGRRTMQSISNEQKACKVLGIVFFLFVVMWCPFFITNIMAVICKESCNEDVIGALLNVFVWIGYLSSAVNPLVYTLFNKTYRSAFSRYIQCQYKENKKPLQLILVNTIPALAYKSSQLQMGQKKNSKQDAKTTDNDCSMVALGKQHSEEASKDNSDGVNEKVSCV

Compound	IC50 [1]	Ki [2]	EC50 [3]	Ki [4]
Cc1ccc(C(=O)C(C)N2CCCC2)cc1 (stereo not drawn) [4-MePPP, 4-methyl-α-pyrrolidinopropiophenone]	55 µM	12 ± 2.2 µM	> 10 µM	1.3 ± 0.4 µM
CCC(C(=O)c1ccc(F)cc1)N1CCCC1 (stereo not drawn) [4F-PBP, 4-fluoro-α-pyrrolidinobutiophenone]	177 µM	6 ± 3.4 µM	> 20 µM	> 13 µM
CNC(C)Cc1ccc2c(c1)OCO2 (centres unmarked) [MDMA, 3,4-methylenedioxymethamphetamine, reference compound]	1.6 µM			
CCC(C(=O)c1ccc2c(c1)OCO2)N1CCCC1 (stereo not drawn) [MDPBP, 3,4-methylenedioxy-α-pyrrolidinobutiophenone]	11 µM	9 ± 1.5 µM	> 20 µM	> 13 µM
CCCCC(C(=O)c1ccc2c(c1)OCO2)N1CCCC1 (stereo not drawn) [MDPHP, 3,4-methylenedioxy-α-pyrrolidinohexanophenone]	9 µM	13 ± 1.9 µM	> 20 µM	> 13 µM
CC(C(=O)c1ccc2c(c1)OCO2)N1CCCC1 (stereo not drawn) [MDPPP, 3,4-methylenedioxy-α-pyrrolidinopropiophenone]	43 µM	1.9 ± 0.8 µM	> 20 µM	8 ± 1.2 µM
CCCC(C(=O)c1ccc2c(c1)OCO2)N1CCCC1 (centres unmarked) [MDPV, 3,4-methylenedioxypyrovalerone]	8.4 µM	7.7 ± 0.6 µM	> 20 µM	> 13 µM
COc1ccc(C(=O)C(C)N2CCCC2)cc1 (stereo not drawn) [MOPPP, 4-methoxy-α-pyrrolidinopropiophenone]	94 µM	> 17 µM	> 20 µM	> 13 µM
CCCCC(C(=O)c1ccc(C)cc1)N1CCCC1 (stereo not drawn) [MPHP, 4-methyl-α-pyrrolidinohexanophenone]	11 µM	13 ± 1.9 µM	> 20 µM	7.3 ± 1.2 µM
CCCCC(NCC)C(=O)c1ccccc1 (centres unmarked) [NEH, N-ethylamine-hexanophenone]	47 µM	> 17 µM	> 20 µM	> 13 µM
CCCC(C(=O)c1ccc(C)cc1)N1CCCC1 (centres unmarked) [Pyrovalerone, pyrovalerone]	13 µM	13 ± 1.4 µM	> 20 µM	> 13 µM
CCCCC(C(=O)c1ccccc1)N1CCCC1 (stereo not drawn) [α-PHP, α-pyrrolidinohexanophenone]	245 µM	11 ± 5.3 µM	> 20 µM	> 13 µM
CC(C(=O)c1ccccc1)N1CCCC1 (stereo not drawn) [α-PPP, α-pyrrolidinopropiophenone]	> 1000 µM	0.7 ± 0.3 µM	> 20 µM	1.1 ± 0.3 µM
CCCC(C(=O)c1ccccc1)N1CCCC1 (stereo not drawn) [α-PVP, α-pyrrolidinopentiophenone]	279 µM	6.1 ± 0.7 µM	> 20 µM	> 13 µM

From PMC8348686, “The Pharmacological Profile of Second Generation Pyrovalerone Cathinones and Related Cathinone Derivative” (International Journal of Molecular Sciences, 2021)
